“And” between values parts separate entries of the source, which are not always exact repeats. Equal values may be shown once.
Assay: Compared solubility in water
Assay type: physicochemical
Details: for solubility: thermodynamic from solid, read-out: B = solubility in water of O-β-D-Glcp-(1→-phenolic compound); for solubility / B = solubility in water of O-β-D-Glcp-(1→-phenolic compound): water saturated solution; for solubility / A = solubility in water of [6)-O-α-D-Glcp-(1→]1-6-O-β-D-Glcp-(1→-phenolic compound / B = solubility in water of O-β-D-Glcp-(1→-phenolic compound): pH 4.0 to 5.0, no buffer added, 25° C.; for % of solubility increase = (A − B)/B × 100: versus corresponding O-β-D-Glcp-(1→-phenolic compound); for A = solubility in water of [6)-O-α-D-Glcp-(1→]1-6-O-β-D-Glcp-(1→-phenolic compound: minimal solubility from concentrated syrup
Source text: The phenolic compounds derivatives of the present invention have an improved solubility in water of at least 50% to 5000% as compared to the corresponding 0-β-D-Glcp-(14)-phenolic compound in the same physiological conditions, more preferably at least 50%, 100%, 200%, 400%, 800%, 1000%, 2000%, 3000%, 4000% or 5000%. Solubility of a phenolic compound derivative can be estimated by preparing a saturated water solution of said phenolic compound derivative. Excess solid form of phenolic compound derivative is eliminated by high speed centrifugation and concentration of compound A in the supernatant is estimated by HPLC using appropriate references (see above §‘Prepation of derivative’ for HPLC conditions example). Solubility difference is calculated with formula: […]
For this purpose, these [6)-O-α-D-Glcp-(1→]n-6-O-β-D-Glcp-(1→-phenolic derivatives have been prepared as described in example 1, and concentrated as described in EP2007/055815. The resulting concentrated syrup obtained after purification of these [6)-O-α-D-Glcp-(1→]1-6-O-β-D-Glcp-(1→-phenolic derivatives has been diluted and analyzed by HPLC to estimate the content of soluble [6)-O-α-D-Glcp-(1→]1-6-O-β-D-Glcp-(1→-phenolic derivatives.
In parallel, an excess amount of each corresponding β-D-Glcp-(1→-phenolic derivatives has been diluted in water to enable the preparation of water saturated solutions of these compounds. After high speed centrifugation to remove the excess of solid material, the supernatant of these saturated solutions has been analyzed by HPLC to estimate the content of soluble O-β-D-Glcp-(1→-phenolic derivatives.
Nota: One should notice that solubility of the [6)-O-α-D-Glcp-(1→]1-6-O-(3-D-Glcp-(1→-phenolic derivatives is considered as a minimal solubility as concentration of the initial syrups have not been tested.

| Compound | solubility | % of solubility increase = (A − B)/B × 100 (In g/L) | % of solubility increase = (A − B)/B × 100 (In mM) | A = solubility in water of [6)-O-α-D-Glcp-(1→]1-6-O-β-D-Glcp-(1→-phenolic compound | B = solubility in water of O-β-D-Glcp-(1→-phenolic compound) |
| --- | --- | --- | --- | --- | --- |
| COc1ccc(C=Cc2cc(O)cc(O[C@@H]3O[C@H](CO)[C@@H](O)[C@H](O)[C@H]3O)c2)cc1O [Rhapontin, 4′-methoxy-3,3′,5-stilbenetriol-3-O-β-D-glucopyranoside, reference compound] | 300 µg/mL and 700 µM |  |  |  |  |
| OC[C@H]1O[C@H](OC[C@H]2O[C@@H](Oc3cc(O)cc(/C=C/c4ccc(O)cc4)c3)[C@H](O)[C@@H](O)[C@@H]2O)[C@H](O)[C@@H](O)[C@@H]1O [[6)-O-α-D-Glcp-(1→]1-6-O^3-β-D-Glcp-(1→-resveratrol] |  | Higher than 5300% | Higher than 3650% | > 65.0 g/L and > 117.6 mM |  |
| COc1ccc(C=Cc2cc(O)cc(O[C@@H]3O[C@H](CO[C@H]4O[C@H](CO)[C@@H](O)[C@H](O)[C@H]4O)[C@@H](O)[C@H](O)[C@H]3O)c2)cc1O [[6)-O-α-D-Glcp-(1→]1-6-O^3-β-D-Glcp-(1→-4′-methoxy-3,3′,5-stilbenetriol] |  | Higher than 5400% | Higher than 3950% | > 16.6 g/L and > 28.5 mM |  |
| OC[C@H]1O[C@@H](Oc2cc(O)cc(C=Cc3ccc(O)cc3)c2)[C@H](O)[C@@H](O)[C@@H]1O [O-β-D-Glcp-(1→-resveratrol, Resveratrol-3-O-β-D-glucopyranoside, reference compound] | 1200 µg/mL and 3100 µM |  |  |  |  |
| O=c1ccc2cc(O[C@@H]3O[C@H](CO[C@H]4O[C@H](CO)[C@@H](O)[C@H](O)[C@H]4O)[C@@H](O)[C@H](O)[C@H]3O)c(O)cc2o1 [[6)-O-α-D-Glcp-(1→]1-6-O^6-β-D-Glcp-(1→-esculetin] |  | Higher than 850% | Higher than 550% | > 12.5 g/L and > 24.9 mM |  |
| O=C(CCc1ccc(O)cc1)c1c(O)cc(O)cc1O[C@@H]1O[C@H](CO[C@H]2O[C@H](CO)[C@@H](O)[C@H](O)[C@H]2O)[C@@H](O)[C@H](O)[C@H]1O [[6)-O-α-D-Glcp-(1→]1-6-O^2′-β-D-Glcp-(1→-phloretin] |  | Higher than 4750% | Higher than 3450% | > 53.3 g/L and > 89.1 mM |  |
| Esculetin-6-O-β-D-glucopyranoside [Esculin, reference compound] |  |  |  |  | 1.3 g/L and 3.8 mM |
| COc1ccc(/C=C/c2cc(O)cc(O[C@@H]3O[C@H](CO)[C@@H](O)[C@H](O)[C@H]3O)c2)cc1 [Deoxyrhapontin, 3,5-dihydroxy-4′-methoxystilbene-3-O-β-D-glucopyranoside, reference compound] |  |  |  |  | 0.3 g/L and 0.7 mM |
| COc1ccc(C=Cc2cc(O)cc(O[C@@H]3O[C@H](CO[C@H]4O[C@H](CO)[C@@H](O)[C@H](O)[C@H]4O)[C@@H](O)[C@H](O)[C@H]3O)c2)cc1 [[6)-O-α-D-Glcp-(1→]1-6-O^3-β-D-Glcp-(1→-3,5-dihydroxy-4′-methoxystilbene] |  | Higher than 2700% | Higher than 2000% | > 8.5 g/L and > 15.0 mM |  |
| O=C(CCc1ccc(O)cc1)c1c(O)cc(O)cc1O[C@@H]1O[C@H](CO)[C@@H](O)[C@H](O)[C@H]1O [Phloridzin, Phloretin-2′-O-β-D-glucopyranoside, reference compound] | 1100 µg/mL and 2500 µM |  |  |  |  |
